What was measured:
[1] = target: T1, human 72 kDa gelatinase catalytic domain (GCD), reconstructed 19 kDa protein lacking propeptide, C-terminal domain and fibronectin-like insert, Seq ID No: 1 (Homo sapiens, UniProt P08253, DEL214-387); assay: Inhibition of GCD cleavage of thiopeptolide by amino acid derivatives; assay type: biochemical; details: for GCD IC50: 17.3 nM GCD, 100 μM thiopeptolide, 10 mM CaCl2, 10 μM ZnCl2, MOPS pH 7.0; for GCD Ki: derived from IC50 by Ki=IC50/(1+[substrate]/Km), substrate 100 μM, Km 134 μM
T1 construct: starting at Ala at position -2 and ending at Ile at 168; made in house; host or cells: E. coli BL21(DE3)/pLysS
T1 sequence (P08253 with tags, fused parts or gaps DEL214-387): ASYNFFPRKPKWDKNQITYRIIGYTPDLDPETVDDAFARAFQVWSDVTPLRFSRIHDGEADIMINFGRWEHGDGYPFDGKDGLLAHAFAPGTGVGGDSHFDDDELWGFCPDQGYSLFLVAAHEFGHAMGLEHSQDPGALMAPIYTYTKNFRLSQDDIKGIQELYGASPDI
Protocol: The 100 μL assay mixture typically contained 50 mM MOPS (pH 7.0), 1 mM DTNB, 100 μM thiopeptolide, 10 mM CaCl2, 10 μM ZnCl2, and the enzyme.
The compounds tested for GCD inhibition were obtained from Bachem. […] Inhibition was initially tested at inhibitor concentrations of 100 and 500 μM. […] The determinations were repeated three times.

[2] = target: stromelysin catalytic domain (SCD), C-terminally truncated human stromelysin, Seq ID No: 2 (Homo sapiens, UniProt P08254); details: taken from Ye Q. Z., et al., J. Med. Chem., 1994;37:206-209; cited from earlier work
stromelysin catalytic domain (SCD), C-terminally truncated human stromelysin, Seq ID No: 2, sequence (P08254 100-273): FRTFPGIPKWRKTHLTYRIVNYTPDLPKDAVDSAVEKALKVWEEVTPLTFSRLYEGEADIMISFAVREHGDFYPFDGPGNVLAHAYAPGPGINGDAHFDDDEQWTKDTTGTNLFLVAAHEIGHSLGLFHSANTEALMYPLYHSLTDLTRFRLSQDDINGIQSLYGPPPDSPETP

[3] = target: fluorogenic peptide Dnp-Pro-Leu-Gly-Leu-Trp-Ala-D-Arg-NH2
[4] = target: fluorogenic peptide Mca-Pro-Leu-Gly-Leu-Dpa-Ala-Arg-NH2
[5] = target: thiopeptolide Ac-Pro-Leu-Gly-thioester-Leu-Leu-Gly-OEt

stromelysin catalytic domain (SCD), C-terminally truncated stromelysin (enzyme), sequence (P08254 100-273 limits assumed): as the sequence (P08254 100-273) above

N[C@@H](Cc1c[nH]c2ccccc12)C(=O)O [Compound 3, H-L-Trp-OH]
GCD IC50 [1]: > 500 µM | GCD inhibition (in words) ([1]; tested at 100 and 500 μM): not active | IC50 [2]: > 500 µM

N[C@H](Cc1c[nH]c2ccccc12)C(=O)O [Compound 4, H-D-Trp-OH]
GCD IC50 [1]: > 500 µM | IC50 [2]: > 500 µM

CC(C)(C)OC(=O)N[C@@H](Cc1c[nH]c2ccccc12)C(=O)O [Compound 5, Boc-L-Trp-OH]
GCD IC50 [1]: 57 ± 4 µM | GCD Ki [1]: 33 µM

CC(C)(C)OC(=O)N[C@H](Cc1c[nH]c2ccccc12)C(=O)O [Compound 6, Boc-D-Trp-OH]
GCD IC50 [1]: > 500 µM | IC50 [2]: 100 to 500 µM

O=C(N[C@@H](Cc1ccc(O)cc1)C(=O)O)OCc1ccccc1 [Compound 7, Cbz-L-Tyr-OH]
GCD IC50 [1]: 10.4 ± 0.4 µM | GCD Ki [1]: 6.0 µM

O=C(N[C@H](Cc1ccc(O)cc1)C(=O)O)OCc1ccccc1 [Compound 8, Cbz-D-Tyr-OH]
GCD IC50 [1]: > 500 µM

O=C(N[C@@H](Cc1ccccc1)C(=O)O)OCc1ccccc1 [Compound 9, Cbz-L-Phe-OH]
GCD IC50 [1]: 21 ± 1 µM | GCD Ki [1]: 12 µM

O=C(N[C@H](Cc1ccccc1)C(=O)O)OCc1ccccc1 [Compound 10, Cbz-D-Phe-OH]
GCD IC50 [1]: 100 to 500 µM | IC50 [2]: > 500 µM

human 72 kDa gelatinase catalytic domain protein (GCD), without propeptide, C-terminal domain and fibronectin-like insert (enzyme)
Catalytic efficiency kcat/Km in cleaving the fluorogenic peptide [3]: 112000 M⁻¹ s⁻¹ | Catalytic efficiency kcat/Km in cleaving the fluorogenic peptide [4]: 184000 M⁻¹ s⁻¹ | Catalytic efficiency kcat/Km in cleaving the thiopeptolide [5]: 119000 M⁻¹ s⁻¹

stromelysin catalytic domain (SCD), C-terminally truncated stromelysin (enzyme)
Catalytic efficiency kcat/Km in cleaving the fluorogenic peptide [3]: 13700 M⁻¹ s⁻¹ | Catalytic efficiency kcat/Km in cleaving the fluorogenic peptide [4]: 10000 M⁻¹ s⁻¹ | Catalytic efficiency kcat/Km in cleaving the thiopeptolide [5]: 7840 M⁻¹ s⁻¹

Reference: patent publication US5646027A, “Process for the production of gelatinase catalytic domain protein” (Warner-Lambert Company, priority 1994, dated 1997)
